A short description of data set [1]: UV filters dispersion (dispersibility of solid UV filter in ester oils). The class given is physicochemical. Set-up: key to Filters dispersion t0, 1% / Filters dispersion t0, 10% / Filters dispersion t24, 1% / Filters dispersion t24, 10%: D=homogeneous dispersion; S=sediment deposit. The following applies: for Filters dispersion t0, 1%: 1% TiO2, 0 hours at 25° C.; for Filters dispersion t24, 1%: 1% TiO2, 24 hours at 25° C.; for Filters dispersion t0, 10%: 10% TiO2, 0 hours at 25° C.; for Filters dispersion t24, 10%: 10% TiO2, 24 hours at 25° C.; for dispersion of Titania compared with reference solvents: in words. Here is the method: The dispersibility of a solid UV filter in different ester oils was tested using Titania (TiO2, commercially available as Titanio Biossido Anatasio from A.C.E.F.). Various ratios of filter/ester (1% and 10% TiO2) were prepared under stirring at 70° C. for 30 minutes. The dispersions were then observed after a storage period of 0 hours (t0) and 24 hours (t24) at ambient temperature (25° C.) to check for the formation of any sediment deposit. Results for each ester are shown in the table below (D=homogeneous dispersion; S=sediment deposit).

The nature of data set [2]: Pigments dispersion: wet point and flow point. The class given is physicochemical. The following applies: for Fp (flow point), amount of ester oil / Wp (wet point), amount of ester oil: grams per 100 g of pigment. The source says: Black Iron Oxide particles (C177499, commercially available as YPC335200 from Yipin) were dispersed in each of the ester oils of the present invention and in ester oil commonly used as cosmetic ingredients. Each sample of powder particles was wetted by the dropwise addition of one ester oil and then vigorously blended using a spatula until the wet point and the flow point were reached.
The wet point is defined as the minimum volume of dispersant solution to produce a soft coherent mass; the further minimum addition of dispersant solution to produce flow or falling off of the homogeneous mass from the vertical blade of a horizontally held spatula determines the flow point.
The amounts of dispersant solution (i.e. ester oil) needed to reach the wet point (Wp) and the flow point (Fp) were recorded and reported in the table below, expressed in grams per 100 g of pigment.

As to `CCCCCCCCC(=O)OCC(COC(=O)CCCCCCCC)(COC(=O)CCCCCCCC)COC(=O)CCCCCCCC` [Pentaerythritol tetrapelargonate], in data set [1], the “Filters dispersion t0, 1%” value is given as “D”; the “Filters dispersion t24, 1%” value is “D”; the “Filters dispersion t0, 10%” value was “D”; the “Filters dispersion t24, 10%” value was “D”. In data set [1], the “dispersion of Titania compared with reference solvents” value is reported as “even better”. In data set [2], the “Fp (flow point), amount of ester oil” value was determined as 132.00 g and the “Wp (wet point), amount of ester oil” value was 62.00 g.
With `CCCCCCCCC(=O)OCC(COC(=O)CCCCCCCC)OC(=O)CCCCCCCC` [Glycerol tripelargonate], in data set [1], the “Filters dispersion t0, 1%” value is on record as “D”; the “Filters dispersion t24, 1%” value is listed as “D”; the “Filters dispersion t0, 10%” value was “D”; the “Filters dispersion t24, 10%” value was “S/D”. Moreover, the “dispersion of Titania compared with reference solvents” value in data set [1] was “even better”. Further, in data set [2], the “less solvent required in the final composition” value was “about 30%”; the “Fp (flow point), amount of ester oil” value was determined as 100.00 g; the “Wp (wet point), amount of ester oil” value stood at 60.00 g. In data set [2] (in words), the “dispersion properties compared with commonly used cosmetic ingredients” value is recorded as “even better”.
Turning to `CCCCCCCCC(=O)OCC(C)(C)COC(=O)CCCCCCCC` [Neopentyl glycol dipelargonate], in data set [1], the “Filters dispersion t0, 1%” value is “D”; the “Filters dispersion t24, 1%” value was “S/D”; the “Filters dispersion t0, 10%” value was “D”; the “Filters dispersion t24, 10%” value is “S/D”. Further, in data set [2], the “Fp (flow point), amount of ester oil” value is given as 166.00 g and the “Wp (wet point), amount of ester oil” value is listed as 61.00 g.
As for `CC(C)CCCCCCOC(=O)CCCCCC(C)C` [Isononyl Isononanoate, reference compound], in data set [1], the “Filters dispersion t0, 1%” value was “D”; the “Filters dispersion t24, 1%” value is “S”; the “Filters dispersion t0, 10%” value was “D”; the “Filters dispersion t24, 10%” value was “S”. In data set [2], the “Fp (flow point), amount of ester oil” value worked out at 145.00 g and the “Wp (wet point), amount of ester oil” value came out at 50.00 g.

Source of the values: US11992545B2, “Aqueous cosmetic compositions containing pelargonic acid esters” (Novamont S.p.A., priority 2015, dated 2024).
